# Data published in patent US20080318788A1, “Microcapsule” (priority 2005, published 2008).
# Assay: Photo stabilisation study of COMPOUND (V) in gelatine microcapsules exposed to daylight, HPLC assay
# Assay type: physicochemical
# Settings: Chocolate Brown dyed gelatine capsules, 88 hours exposure to daylight (8 hours daylight over 11 days)
# Description: The HPLC system was from Waters comprising of two 510 pumps, a 717 plus Autosampler, a System Interface Module, a Lambda-Max 480 detector and Millennium Chromatography Manager software. Chromatography was achieved on a Zorbax ODS 5 μm C18 analytical column of dimension 4.6×250 mm internal diameter maintained at 35° C. Mobile phases were unmodified water (Milli-Q grade) in reservoir A and unmodified acetonitrile in reservoir B. Linear gradient elution was used with 70 to 90% B over the first 10 minutes, then 100% B for 3 minutes and returning to 70% B over 4 minutes. Injection cycle time was 20 minutes with a flow rate of 2 ml/min. The samples were either dissolved in acetonitrile or diethyl ether and 10 μl volume injected on to the column which was maintained at 35° C. Prior to use, mobile phase were degassed under vacuum with sonication and continuously sparged with helium. The naphthoquinones were detected by measurement of UV absorbance at 269 nm.
# A batch of gelatine microcapsules containing 300 mg of COMPOUND (V) in 15 ml of Exxsol® D100 was produced.
# The capsule slurry was washed repeatedly with water to remove debris and filtered to obtain a wet cake. An aliquot of the wet cake (11.3 g) was made up to 50 ml and dyed brown with Chocolate Brown (500 mg, equivalent to 10 mg/ml solution). Aliquots (200 μl) of microcapsule slurry of brown and undyed capsules were applied to glass microscope slides in duplicate. The slurry from each batch was spread to form a monolayer of microcapsules on each slide. The slides were air dried in a dark at room temperature (≅21° C.) and exposed to daylight on a south-facing windowsill for various time periods. Two slides from each batch were analysed per time point post of exposure. Unexposed slides stored in the dark were used as time zero reference.
# The contents of the capsules were extracted by rupturing the capsules, by rolling a glass rod on the slides, and washing both the rod and the slide with diethyl ether. The extracts were made up to 10 ml and assayed by HPLC.
row,Compound,"amount of COMPOUND (V) remaining, % of the initial amount"
1,CC(=O)OC1=C(C(C)CCC[Si](C)(C)C)C(=O)c2ccccc2C1=O (stereo not shown) [COMPOUND (V)],~80%

# Same assay, conditions: undyed impervious gelatine capsules, 6 hours exposure to daylight
row,Compound,"amount of COMPOUND (V) remaining, % of the initial amount"
1,CC(=O)OC1=C(C(C)CCC[Si](C)(C)C)C(=O)c2ccccc2C1=O (stereo not shown) [COMPOUND (V)],60%

# Same assay, conditions: undyed impervious gelatine capsules, 16 hours exposure to daylight
row,Compound,"amount of COMPOUND (V) remaining, % of the initial amount"
1,CC(=O)OC1=C(C(C)CCC[Si](C)(C)C)C(=O)c2ccccc2C1=O (stereo not shown) [COMPOUND (V)],23%

# Same assay, conditions: undyed impervious gelatine capsules, 40 hours exposure to daylight (8 hours daylight over 5 days)
row,Compound,"amount of COMPOUND (V) remaining, % of the initial amount"
1,CC(=O)OC1=C(C(C)CCC[Si](C)(C)C)C(=O)c2ccccc2C1=O (stereo not shown) [COMPOUND (V)],6%

# Assay: Water solubility of UV protection dyes
# Settings: not given
row,WATER SOLUBILITY,Compound
1,100 mg/mL,CCN(CC)c1ccc(N=Nc2ccc(S(=O)(=O)[O-])cc2)cc1.[K+] [Ethyl Orange]
2,3 mg/mL,CCN(CC)c1ccc(N=Nc2ccccc2C(=O)O)cc1 [Ethyl Red]
3,60 mg/mL,Nc1cc(N)c(N=Nc2cccc3c(S(=O)(=O)O)cccc23)cc1N=Nc1cc([N+](=O)[O-])ccc1O.[Na] [Mordant Brown 1]
4,60 mg/mL,Cc1cc(N=Nc2cc([N+](=O)[O-])cc([N+](=O)[O-])c2O)c(N)cc1N [Mordant Brown 4]
5,20 mg/mL,Nc1cc(N)c(S(=O)(=O)[O-])cc1N=Nc1cc([N+](=O)[O-])ccc1O.[Na+] [Mordant Brown 33]
6,40 mg/mL,Nc1cc(N)c(N=Nc2cc([N+](=O)[O-])cc([N+](=O)[O-])c2O)cc1Cl [Mordant Brown 48]

# The next lines start with the compound.
row,Compound,WATER SOLUBILITY
1,CC1=NN(c2ccc(S(=O)(=O)[O-])cc2)C(=O)C1N=Nc1ccc(-c2ccc(N=Nc3ccc(OS(=O)(=O)c4ccc(C)cc4)cc3)c(S(=O)(=O)[O-])c2)cc1.[Na+].[Na+] (stereo not shown) [Acid Orange 63],50 mg/mL
2,Cc1nn(-c2ccccc2)c([O-])c1N=Nc1cc([N+](=O)[O-])cc(S(=O)(=O)[O-])c1[O-].[Cr+3].[Na+].[OH-] [Acid Orange 74],20 mg/mL
3,Cc1cc(N=Nc2ccc(C)c(N=Nc3cc(C)c(N)cc3N)c2)c(N)cc1N [Bismark Brown R],70 mg/mL
4,Nc1ccc(N=Nc2cccc(N=Nc3ccc(N)cc3N)c2)c(N)c1 [Bismark Brown Y],50 mg/mL
5,O=S1(=O)OC(c2ccc(O)c(Cl)c2)(c2ccc(O)c(Cl)c2)c2ccccc21 [Chlorophenol Red],60 mg/mL
6,O=S(=O)([O-])c1ccc2c(N=Nc3ccccc3)c(O)ccc2c1.[Na+] [Crocein Orange G],40 mg/mL
7,CC(=O)Nc1ccc2nc3c4ccccc4c(=N)cc-3oc2c1.Cl [Darrow Red],1 mg/mL
8,Cc1cc(O)ccc1C1(c2ccc(O)cc2C)OS(=O)(=O)c2ccccc21 [m-Cresol Purple],2 mg/mL
9,Acid Orange 51,30 mg/mL
